In ChEMBL document CHEMBL3797068, “eCF309: a potent, selective and cell-permeable mTOR inhibitor” (Medchemcomm, 2016):
Values belong to the compound of their own block, whether it stands above or below them. Active and inactive are the calls of the source. The calls are words filed in the database; no cut-off is given here.

What was measured:
MCF7 [1] = assay: Cytotoxicity against human MCF7 cells assessed as cell viability at 1000 nM after 5 days by Presto blue reagent-based spectrofluorometric analysis; format: functional; settings: MCF7, 120 h, read-out: Activity
MCF7 [2] = assay: Cytotoxicity against human MCF7 cells after 5 days by Presto blue reagent-based fluorescence analysis; format: functional, cell-based; settings: for EC50: MCF7, 120 h
MDA-MB-231 [3] = assay: Cytotoxicity against human MDA-MB-231 cells after 5 days by Presto blue reagent-based spectrofluorometric analysis; format: functional, cell-based; settings: MDA-MB-231, 120 h
[4] = biological target: T1, Serine/threonine-protein kinase mTOR (Homo sapiens, UniProt P42345); assay: Inhibition of recombinant human mTOR by LanthaScreen Kinase assay
[5] = biological target: Epithelial discoidin domain-containing receptor 1 (Homo sapiens, UniProt Q08345); assay: Inhibition of human DDR1 using (poly [Glu, Tyr] 4:1) as substrate assessed as incorporation of 33P in substrate by [gamma33P] ATP-based kinase assay
[6] = biological target: DNA-dependent protein kinase catalytic subunit (Homo sapiens, UniProt P78527); assay: Inhibition of human DNA-PK using (poly [Glu, Tyr] 4:1) as substrate assessed as incorporation of 33P in substrate by [gamma33P] ATP-based kinase assay
[7] = biological target: T2, Phosphatidylinositol 4,5-bisphosphate 3-kinase catalytic subunit gamma isoform (Homo sapiens, UniProt P48736); assay: Inhibition of PI3Kgamma (unknown origin) using PIP2 as substrate by HTRF assay
MDA-MB-231 [8] = assay: Cell cycle arrest in human MDA-MB-231 cells assessed as increase in G0/G1 population after 24 hrs by Hoechst 33342 staining-based fluorescence analysis; format: functional
[9] = biological target: T3, Phosphatidylinositol 4,5-bisphosphate 3-kinase catalytic subunit alpha isoform (Homo sapiens, UniProt P42336); assay: Inhibition of PI3Kalpha (unknown origin) using PIP2 as substrate by HTRF assay
[10] = Cell cycle arrest in human PC3 cells assessed as increase in G0/G1 population after 24 hrs by Hoechst 33342 staining-based fluorescence analysis; format: functional; settings: PC-3
[11] = biological target: T4, Phosphatidylinositol 4,5-bisphosphate 3-kinase catalytic subunit delta isoform (Homo sapiens, UniProt O00329); assay: Inhibition of PI3Kdelta (unknown origin) using PIP2 as substrate by HTRF assay
T4 sequence (O00329 whole entry): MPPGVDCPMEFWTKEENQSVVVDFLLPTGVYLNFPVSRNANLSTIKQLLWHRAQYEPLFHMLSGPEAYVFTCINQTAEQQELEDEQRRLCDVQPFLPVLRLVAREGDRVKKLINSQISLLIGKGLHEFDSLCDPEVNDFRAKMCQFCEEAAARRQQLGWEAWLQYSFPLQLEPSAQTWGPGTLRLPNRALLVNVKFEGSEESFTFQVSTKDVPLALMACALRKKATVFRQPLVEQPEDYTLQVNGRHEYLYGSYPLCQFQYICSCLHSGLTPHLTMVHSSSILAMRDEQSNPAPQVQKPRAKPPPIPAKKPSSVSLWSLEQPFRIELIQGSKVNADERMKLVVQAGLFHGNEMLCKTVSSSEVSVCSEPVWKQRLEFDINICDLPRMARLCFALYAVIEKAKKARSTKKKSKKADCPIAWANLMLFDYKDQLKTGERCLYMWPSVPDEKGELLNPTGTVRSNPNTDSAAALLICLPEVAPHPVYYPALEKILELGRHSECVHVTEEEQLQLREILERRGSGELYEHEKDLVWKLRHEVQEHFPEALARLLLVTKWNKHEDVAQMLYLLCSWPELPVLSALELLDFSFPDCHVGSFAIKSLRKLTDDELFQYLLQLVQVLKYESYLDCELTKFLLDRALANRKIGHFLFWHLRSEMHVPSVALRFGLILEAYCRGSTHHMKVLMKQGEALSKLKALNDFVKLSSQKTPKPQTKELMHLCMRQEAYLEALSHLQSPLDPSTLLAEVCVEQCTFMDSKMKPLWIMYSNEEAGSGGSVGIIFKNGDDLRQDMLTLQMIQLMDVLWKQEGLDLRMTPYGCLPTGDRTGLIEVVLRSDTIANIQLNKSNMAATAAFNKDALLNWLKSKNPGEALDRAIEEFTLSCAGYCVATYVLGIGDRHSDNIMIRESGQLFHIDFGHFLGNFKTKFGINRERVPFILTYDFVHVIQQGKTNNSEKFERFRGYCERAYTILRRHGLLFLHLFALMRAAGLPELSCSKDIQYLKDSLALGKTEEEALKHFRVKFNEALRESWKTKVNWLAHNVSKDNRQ

MCF7 [12] = assay: Cell cycle arrest in human MCF7 cells assessed as increase in G0/G1 population after 24 hrs by Hoechst 33342 staining-based fluorescence analysis; format: functional
[13] = Cytotoxicity against human PC3 cells after 5 days by Presto blue reagent-based spectrofluorometric analysis; format: functional, cell-based; settings: PC-3, 120 h
[14] = biological target: T5, Phosphatidylinositol 4,5-bisphosphate 3-kinase catalytic subunit beta isoform (Homo sapiens, UniProt P42338); assay: Inhibition of PI3Kbeta (unknown origin) using PIP2 as substrate by HTRF assay
MCF7 [15] = assay: Cytotoxicity against human MCF7 cells at 0.3 to 1000 nM after 5 days by Presto blue reagent-based spectrofluorometric analysis; format: functional, cell-based
[16] = biological target: T1, Serine/threonine-protein kinase mTOR; assay: Inhibition of human mTOR using (poly [Glu, Tyr] 4:1) as substrate assessed as incorporation of 33P in substrate by [gamma33P] ATP-based kinase assay
[17] = biological target: T3, Phosphatidylinositol 4,5-bisphosphate 3-kinase catalytic subunit alpha isoform; assay: Inhibition of PI3Kalpha (unknown origin) using (poly [Glu, Tyr] 4:1) as substrate assessed as incorporation of 33P in substrate by [gamma33P] ATP-based kinase assay
[18] = biological target: Tyrosine-protein kinase Fyn (Homo sapiens, UniProt P06241); assay: Inhibition of human FYN using (poly [Glu, Tyr] 4:1) as substrate assessed as incorporation of 33P in substrate by [gamma33P] ATP-based kinase assay
[19] = biological target: T2, Phosphatidylinositol 4,5-bisphosphate 3-kinase catalytic subunit gamma isoform; assay: Inhibition of PI3Kgamma (unknown origin) using (poly [Glu, Tyr] 4:1) as substrate assessed as incorporation of 33P in substrate by [gamma33P] ATP-based kinase assay
[20] = biological target: T5, Phosphatidylinositol 4,5-bisphosphate 3-kinase catalytic subunit beta isoform; assay: Inhibition of PI3Kbeta (unknown origin) using (poly [Glu, Tyr] 4:1) as substrate assessed as incorporation of 33P in substrate by [gamma33P] ATP-based kinase assay
[21] = biological target: Proto-oncogene tyrosine-protein kinase receptor Ret (Homo sapiens, UniProt P07949); assay: Inhibition of human RET using (poly [Glu, Tyr] 4:1) as substrate assessed as incorporation of 33P in substrate by [gamma33P] ATP-based kinase assay
[22] = biological target: Tyrosine-protein kinase ABL1 (Homo sapiens, UniProt P00519); assay: Inhibition of human ABL using (poly [Glu, Tyr] 4:1) as substrate assessed as incorporation of 33P in substrate by [gamma33P] ATP-based kinase assay
[23] = biological target: Mast/stem cell growth factor receptor Kit (Homo sapiens, UniProt P10721); assay: Inhibition of human KIT using (poly [Glu, Tyr] 4:1) as substrate assessed as incorporation of 33P in substrate by [gamma33P] ATP-based kinase assay
[24] = biological target: Tyrosine-protein kinase Blk (Homo sapiens, UniProt P51451); assay: Inhibition of human BLK using (poly [Glu, Tyr] 4:1) as substrate assessed as incorporation of 33P in substrate by [gamma33P] ATP-based kinase assay
[25] = biological target: Tyrosine-protein kinase Yes (Homo sapiens, UniProt P07947); assay: Inhibition of human YES using (poly [Glu, Tyr] 4:1) as substrate assessed as incorporation of 33P in substrate by [gamma33P] ATP-based kinase assay
[26] = biological target: T4, Phosphatidylinositol 4,5-bisphosphate 3-kinase catalytic subunit delta isoform; assay: Inhibition of PI3Kdelta (unknown origin) using (poly [Glu, Tyr] 4:1) as substrate assessed as incorporation of 33P in substrate by [gamma33P] ATP-based kinase assay
[27] = biological target: Platelet-derived growth factor receptor alpha (Homo sapiens, UniProt P16234); assay: Inhibition of human PDGFRalpha using (poly [Glu, Tyr] 4:1) as substrate assessed as incorporation of 33P in substrate by [gamma33P] ATP-based kinase assay
[28] = biological target: Proto-oncogene tyrosine-protein kinase Src (Homo sapiens, UniProt P12931); assay: Inhibition of human SRC using (poly [Glu, Tyr] 4:1) as substrate assessed as incorporation of 33P in substrate by [gamma33P] ATP-based kinase assay

T5 sequence (P42338 whole entry, canonical isoform): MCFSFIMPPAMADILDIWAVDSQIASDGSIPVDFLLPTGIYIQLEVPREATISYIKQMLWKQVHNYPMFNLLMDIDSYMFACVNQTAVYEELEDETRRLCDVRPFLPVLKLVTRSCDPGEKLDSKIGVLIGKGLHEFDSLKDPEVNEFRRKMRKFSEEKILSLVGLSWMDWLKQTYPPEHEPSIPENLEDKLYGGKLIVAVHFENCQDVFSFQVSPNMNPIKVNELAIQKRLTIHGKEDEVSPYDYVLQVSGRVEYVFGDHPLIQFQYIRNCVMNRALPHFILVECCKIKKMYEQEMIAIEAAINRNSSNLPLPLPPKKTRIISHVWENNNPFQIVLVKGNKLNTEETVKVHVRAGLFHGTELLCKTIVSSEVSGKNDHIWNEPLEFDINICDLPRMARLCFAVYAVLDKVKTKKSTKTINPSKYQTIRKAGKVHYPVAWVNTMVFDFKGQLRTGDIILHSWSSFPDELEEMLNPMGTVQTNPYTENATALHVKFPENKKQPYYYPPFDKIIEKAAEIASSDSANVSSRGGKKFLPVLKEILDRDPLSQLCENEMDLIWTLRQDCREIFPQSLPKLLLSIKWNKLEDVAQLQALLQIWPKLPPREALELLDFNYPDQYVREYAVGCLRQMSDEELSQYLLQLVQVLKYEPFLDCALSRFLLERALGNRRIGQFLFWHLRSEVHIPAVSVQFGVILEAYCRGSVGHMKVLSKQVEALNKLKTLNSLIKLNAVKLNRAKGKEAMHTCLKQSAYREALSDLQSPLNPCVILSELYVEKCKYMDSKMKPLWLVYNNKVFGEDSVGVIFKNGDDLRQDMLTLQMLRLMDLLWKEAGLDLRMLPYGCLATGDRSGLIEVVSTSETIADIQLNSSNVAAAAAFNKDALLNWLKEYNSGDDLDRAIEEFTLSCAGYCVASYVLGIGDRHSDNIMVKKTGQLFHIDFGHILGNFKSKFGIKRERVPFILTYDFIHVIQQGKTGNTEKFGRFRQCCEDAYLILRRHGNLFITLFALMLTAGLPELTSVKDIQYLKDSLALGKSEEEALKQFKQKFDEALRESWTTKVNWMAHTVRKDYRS
T2 sequence (P48736 whole entry, canonical isoform): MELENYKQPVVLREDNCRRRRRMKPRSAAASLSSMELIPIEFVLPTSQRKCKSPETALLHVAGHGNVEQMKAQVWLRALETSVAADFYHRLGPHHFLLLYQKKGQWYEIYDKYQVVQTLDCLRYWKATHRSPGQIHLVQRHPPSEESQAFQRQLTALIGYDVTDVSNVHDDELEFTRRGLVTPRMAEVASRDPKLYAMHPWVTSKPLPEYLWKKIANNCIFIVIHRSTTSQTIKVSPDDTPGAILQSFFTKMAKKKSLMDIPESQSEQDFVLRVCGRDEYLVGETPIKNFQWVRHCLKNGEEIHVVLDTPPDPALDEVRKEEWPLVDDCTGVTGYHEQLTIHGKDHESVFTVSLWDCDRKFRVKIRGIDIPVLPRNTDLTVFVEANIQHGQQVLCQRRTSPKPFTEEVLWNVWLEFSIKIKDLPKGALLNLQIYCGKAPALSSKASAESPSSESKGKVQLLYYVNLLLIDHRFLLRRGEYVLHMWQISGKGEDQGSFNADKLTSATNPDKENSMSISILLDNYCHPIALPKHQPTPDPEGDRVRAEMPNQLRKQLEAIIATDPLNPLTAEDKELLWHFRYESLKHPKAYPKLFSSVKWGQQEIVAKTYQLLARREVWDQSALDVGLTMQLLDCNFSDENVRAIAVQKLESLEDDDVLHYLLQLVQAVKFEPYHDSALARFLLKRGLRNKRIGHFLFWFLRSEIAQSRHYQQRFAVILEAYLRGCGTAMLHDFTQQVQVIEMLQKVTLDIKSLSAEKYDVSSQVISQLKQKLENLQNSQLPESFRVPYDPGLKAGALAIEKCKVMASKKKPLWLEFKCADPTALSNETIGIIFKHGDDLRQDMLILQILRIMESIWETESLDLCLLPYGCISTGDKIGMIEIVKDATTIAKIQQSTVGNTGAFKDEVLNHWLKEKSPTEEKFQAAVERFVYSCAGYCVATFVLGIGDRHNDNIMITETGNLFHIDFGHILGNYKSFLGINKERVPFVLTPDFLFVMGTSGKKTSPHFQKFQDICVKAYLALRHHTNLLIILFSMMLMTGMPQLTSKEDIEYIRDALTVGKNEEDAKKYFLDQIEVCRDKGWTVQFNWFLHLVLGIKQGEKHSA
T3 sequence (P42336 whole entry, canonical isoform): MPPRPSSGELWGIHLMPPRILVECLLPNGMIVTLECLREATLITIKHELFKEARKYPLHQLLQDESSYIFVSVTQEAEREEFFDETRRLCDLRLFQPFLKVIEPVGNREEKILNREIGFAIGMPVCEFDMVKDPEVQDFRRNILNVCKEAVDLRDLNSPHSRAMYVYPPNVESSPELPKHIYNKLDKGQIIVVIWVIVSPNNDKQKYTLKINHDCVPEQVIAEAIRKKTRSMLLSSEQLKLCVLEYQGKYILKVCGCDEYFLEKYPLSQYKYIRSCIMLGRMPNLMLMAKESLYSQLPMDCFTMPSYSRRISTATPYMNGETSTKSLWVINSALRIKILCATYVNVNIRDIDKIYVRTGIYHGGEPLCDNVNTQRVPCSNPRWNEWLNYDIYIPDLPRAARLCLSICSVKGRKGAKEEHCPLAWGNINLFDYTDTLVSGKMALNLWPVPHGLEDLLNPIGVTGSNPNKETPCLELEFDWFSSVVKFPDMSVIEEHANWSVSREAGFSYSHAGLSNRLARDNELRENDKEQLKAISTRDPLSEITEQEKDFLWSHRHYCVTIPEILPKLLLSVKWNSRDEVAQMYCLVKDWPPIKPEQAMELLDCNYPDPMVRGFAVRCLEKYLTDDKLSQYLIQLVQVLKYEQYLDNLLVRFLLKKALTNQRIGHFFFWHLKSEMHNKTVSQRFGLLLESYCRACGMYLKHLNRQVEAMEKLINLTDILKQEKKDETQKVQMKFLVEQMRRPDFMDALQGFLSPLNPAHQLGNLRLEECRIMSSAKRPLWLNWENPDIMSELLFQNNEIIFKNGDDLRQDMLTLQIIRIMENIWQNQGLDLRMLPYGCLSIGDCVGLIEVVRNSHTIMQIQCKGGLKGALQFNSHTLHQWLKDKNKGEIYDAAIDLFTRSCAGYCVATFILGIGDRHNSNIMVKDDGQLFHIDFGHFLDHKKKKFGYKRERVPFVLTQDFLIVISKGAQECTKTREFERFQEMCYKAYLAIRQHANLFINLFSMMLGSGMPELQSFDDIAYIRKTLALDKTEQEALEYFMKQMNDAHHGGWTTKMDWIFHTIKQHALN
Chain of Tyrosine-protein kinase Blk (P51451 whole entry): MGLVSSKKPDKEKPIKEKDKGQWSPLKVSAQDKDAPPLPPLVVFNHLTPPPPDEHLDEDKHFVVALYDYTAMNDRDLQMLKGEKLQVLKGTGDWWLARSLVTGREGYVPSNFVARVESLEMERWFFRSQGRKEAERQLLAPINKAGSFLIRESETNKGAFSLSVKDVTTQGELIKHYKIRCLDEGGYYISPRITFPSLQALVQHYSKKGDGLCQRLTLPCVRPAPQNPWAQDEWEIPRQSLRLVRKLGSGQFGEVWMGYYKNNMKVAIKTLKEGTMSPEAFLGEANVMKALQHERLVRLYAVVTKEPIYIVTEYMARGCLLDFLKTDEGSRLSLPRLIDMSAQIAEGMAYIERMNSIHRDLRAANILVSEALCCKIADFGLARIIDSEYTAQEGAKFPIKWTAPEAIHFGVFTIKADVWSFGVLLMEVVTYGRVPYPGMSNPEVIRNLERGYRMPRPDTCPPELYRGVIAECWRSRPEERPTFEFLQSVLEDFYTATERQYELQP
Chain of Epithelial discoidin domain-containing receptor 1 (Q08345 whole entry, the tested form may be a part): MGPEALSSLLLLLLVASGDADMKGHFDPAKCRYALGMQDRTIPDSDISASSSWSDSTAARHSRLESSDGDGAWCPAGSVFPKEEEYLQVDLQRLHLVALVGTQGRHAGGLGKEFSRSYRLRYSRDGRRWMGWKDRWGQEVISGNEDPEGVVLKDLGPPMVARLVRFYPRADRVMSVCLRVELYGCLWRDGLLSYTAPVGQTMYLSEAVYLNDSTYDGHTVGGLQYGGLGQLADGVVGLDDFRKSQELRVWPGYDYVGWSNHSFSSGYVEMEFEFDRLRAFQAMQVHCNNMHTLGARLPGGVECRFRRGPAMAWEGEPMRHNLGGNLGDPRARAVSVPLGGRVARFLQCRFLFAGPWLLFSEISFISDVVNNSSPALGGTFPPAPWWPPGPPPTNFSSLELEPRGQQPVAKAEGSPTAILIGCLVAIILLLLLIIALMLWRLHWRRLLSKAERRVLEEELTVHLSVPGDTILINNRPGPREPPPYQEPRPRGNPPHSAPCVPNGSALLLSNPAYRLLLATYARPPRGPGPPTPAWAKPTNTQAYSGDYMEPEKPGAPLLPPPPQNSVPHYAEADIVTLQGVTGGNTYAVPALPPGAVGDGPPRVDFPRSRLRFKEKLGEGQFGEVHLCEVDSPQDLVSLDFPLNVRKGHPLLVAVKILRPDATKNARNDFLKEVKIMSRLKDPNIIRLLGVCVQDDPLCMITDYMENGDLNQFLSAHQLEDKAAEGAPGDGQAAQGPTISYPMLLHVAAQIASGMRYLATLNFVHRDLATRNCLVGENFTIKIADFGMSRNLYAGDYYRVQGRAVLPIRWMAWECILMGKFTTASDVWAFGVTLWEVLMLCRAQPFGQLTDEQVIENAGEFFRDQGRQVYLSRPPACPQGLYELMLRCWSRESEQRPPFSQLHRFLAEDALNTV

Structure (SMILES): CO[C@H]1C[C@@H]2CC[C@@H](C)[C@@](O)(O2)C(=O)C(=O)N2CCCC[C@H]2C(=O)O[C@H]([C@H](C)C[C@@H]2CC[C@@H](O)[C@H](OC)C2)CC(=O)[C@H](C)/C=C(\C)[C@@H](O)[C@@H](OC)C(=O)[C@H](C)C[C@H](C)/C=C/C=C/C=C/1C [SIROLIMUS]
viability at 1 µM (MCF7 [1]): 30%
EC50 (MCF7 [2]): < 1 nM

IC50 [4]: 5 nM
IC50 [5]: 137 nM
IC50 [6]: 48 nM
IC50 [7]: 77 nM
IC50 [9]: 44 nM
IC50 [11]: 149 nM
IC50 [14]: 1120 nM
Structure (SMILES): Nc1nc2cc(-c3nn(CC4CCCO4)c4ncnc(N)c34)ccc2o1 (stereo not drawn)
EC50 (MDA-MB-231 [3]): 113 nM
EC50 (MCF7 [2]): 8 nM
Activity (MDA-MB-231 [8]): Active
Activity [10]: Active
Activity (MCF7 [12]): Active
EC50 [13]: 51 nM

Structure (SMILES): Nc1nc2cc(-c3nn(CC=O)c4ncnc(N)c34)ccc2o1
Activity (MCF7 [15]): inactive

Structure (SMILES): COC(Cn1nc(-c2cnc3[nH]ccc3c2)c2c(N)ncnc21)OC
Activity (MCF7 [2]): Active

Structure (SMILES): CO[C@H]1C[C@@H]2CC[C@@H](C)[C@@](O)(O2)C(=O)C(=O)N2CCCC[C@H]2C(=O)O[C@H]([C@H](C)C[C@@H]2CC[C@@H](OCCO)[C@H](OC)C2)CC(=O)[C@H](C)/C=C(\C)[C@@H](O)[C@@H](OC)C(=O)[C@H](C)C[C@H](C)/C=C/C=C/C=C/1C [EVEROLIMUS]
viability at 1 µM (MCF7 [1]): 30%
EC50 (MCF7 [2]): < 1 nM

IC50 [16]: 59 nM
IC50 [17]: 115 nM
IC50 [18]: > 100000 nM
IC50 [19]: 302 nM
IC50 [20]: 3850 nM
IC50 [21]: > 100000 nM
IC50 [22]: 8630 nM
IC50 [23]: > 100000 nM
IC50 [24]: > 100000 nM
IC50 [25]: > 100000 nM
IC50 [26]: 271 nM
IC50 [27]: > 100000 nM
IC50 [28]: > 100000 nM
Structure (SMILES): Nc1nc2cc(-c3nn(CC4OCCO4)c4ncnc(N)c34)ccc2o1
EC50 (MCF7 [2]): 7.6 nM
